Laboratory results from ChEMBL document CHEMBL1201862, “PubChem BioAssay data set” (2004).
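Protocol summary: plate cells (96-well), add compound at 5 concentrations, incubate 48 h, interpolate endpoints linearly. Abbreviation: GI50, concentration required for 50% inhibition of growth.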 Activity calls are given as the source filed them. Rule as the data show it: active = GI50 up to about 1.1 µM and inactive = higher.

Legend:
Experiment in all cases: NCI tumour cell line growth inhibition, 48 h
[1] = test system: 786-0
[2] = test system: A498
[3] = test system: A549
[4] = test system: ACHN
[5] = test system: BT-549
[6] = test system: CAKI-1
[7] = test system: CCRF-CEM
[8] = test system: COLO 205
[9] = test system: DU-145
[10] = test system: EKVX
[11] = test system: HCC 2998
[12] = test system: HCT-116
[13] = test system: HCT-15
[14] = test system: HL-60
[15] = test system: HOP-62
[16] = test system: HOP-92
[17] = test system: HT-29
[18] = test system: Hs-578T
[19] = test system: IGROV-1
[20] = test system: K562
[21] = test system: KM12
[22] = test system: LOX IMVI
[23] = test system: M14
[24] = test system: MCF7
[25] = test system: MDA-MB-231
[26] = test system: MDA-MB-435
[27] = test system: MDA-N
[28] = test system: MOLT-4
[29] = test system: Malme-3M
[30] = test system: NCI-H226
[31] = test system: NCI-H23
[32] = test system: NCI-H460
[33] = test system: NCI-H522
[34] = test system: NCI/ADR-RES
[35] = test system: OVCAR-3
[36] = test system: OVCAR-4
[37] = test system: OVCAR-5
[38] = test system: OVCAR-8
[39] = test system: PC-3
[40] = test system: RPMI-8226
[41] = test system: RXF 393
[42] = test system: SF-268
[43] = test system: SF-295
[44] = test system: SF-539
[45] = test system: SK-MEL-28
[46] = test system: SK-MEL-2
[47] = test system: SK-MEL-5
[48] = test system: SK-OV-3
[49] = test system: SN12C
[50] = test system: SNB-19
[51] = test system: SNB-75
[52] = test system: SR
[53] = test system: SW-620
[54] = test system: T47D
[55] = test system: TK-10
[56] = test system: U-251
[57] = test system: UACC-257
[58] = test system: UACC-62
[59] = test system: UO-31

With `CC(C)[Si]1(C(C)C)OCC2OC(n3c(C(=O)c4ccccc4)cc(=O)[nH]c3=O)CC2O[Si](C(C)C)(C(C)C)O1` (stereo not drawn) the GI50 [1] was 3.05 µM (inactive), the GI50 [2] was 11.4 µM (inactive) and the GI50 [3] was 7.28 µM (inactive). The GI50 [4] was 3.16 µM (inactive), the GI50 [5] was 4.69 µM (inactive) and the GI50 [6] was 5.53 µM (inactive). For the same molecule, the GI50 [7] was 2.12 µM (inactive), the GI50 [8] was 3.72 µM (inactive) and the GI50 [9] was 11.6 µM (inactive). For the same molecule, the GI50 [10] was 3.71 µM (inactive), the GI50 [11] was 1.65 µM (inactive) and the GI50 [12] was 3.15 µM (inactive). The GI50 [13] was 2720 nM, the GI50 [14] was 2.67 µM (inactive) and the GI50 [15] was 7.03 µM (inactive). For the same molecule, the GI50 [16] was 2.33 µM (inactive), the GI50 [17] was 1.9 µM (inactive) and the GI50 [18] was 2.26 µM (inactive). The GI50 [19] was 3.28 µM (inactive), the GI50 [20] was 3.05 µM (inactive) and the GI50 [21] was 2.31 µM (inactive). For the same molecule, the GI50 [22] was 2 µM (inactive), the GI50 [23] was 3.66 µM (inactive) and the GI50 [24] was 2.94 µM (inactive). For the same molecule, the GI50 [25] was 2.37 µM (inactive), the GI50 [26] was 3.1 µM (inactive) and the GI50 [27] was 3.2 µM (inactive). The GI50 [28] was 1.88 µM (inactive), the GI50 [29] was 3.75 µM (inactive) and the GI50 [30] was 2.94 µM (inactive). The GI50 [31] was 2.52 µM (inactive), the GI50 [32] was 3.58 µM (inactive) and the GI50 [33] was 1.7 µM (inactive). For the same molecule, the GI50 [34] was 10.2 µM (inactive), the GI50 [35] was 2.08 µM (inactive) and the GI50 [36] was 2.93 µM (inactive). For the same molecule, the GI50 [37] was 3.4 µM (inactive), the GI50 [38] was 1.99 µM (inactive) and the GI50 [39] was 2.2 µM (inactive). For the same molecule, the GI50 [40] was 2.85 µM (inactive), the GI50 [41] was 2.54 µM (inactive) and the GI50 [42] was 2.78 µM (inactive). For the same molecule, the GI50 [43] was 3.78 µM (inactive), the GI50 [44] was 2.88 µM (inactive) and the GI50 [45] was 3.72 µM (inactive). The GI50 [46] was 5.05 µM (inactive), the GI50 [47] was 4.37 µM (inactive) and the GI50 [48] was 11.9 µM (inactive). For the same molecule, the GI50 [49] was 2.39 µM (inactive), the GI50 [50] was 7.71 µM (inactive) and the GI50 [51] was 3.02 µM (inactive). The GI50 [52] was 2.61 µM (inactive), the GI50 [53] was 2.81 µM (inactive) and the GI50 [54] was 4.36 µM (inactive). For the same molecule, the GI50 [55] was 3.24 µM (inactive), the GI50 [56] was 3.15 µM (inactive) and the GI50 [57] was 2.34 µM (inactive). For the same molecule, the GI50 [58] was 2.81 µM (inactive) and the GI50 [59] was 2.47 µM (inactive).
For `COc1cc(OC)c(-c2cc(=O)c3c(OC)c(OC)c(OC)c(OC)c3o2)cc1OC`, the GI50 [1] was > 69.3 µM (inactive), the GI50 [2] was > 61.2 µM (inactive) and the GI50 [3] was > 100 µM (inactive). The GI50 [4] was > 100 µM (inactive), the GI50 [5] was > 100 µM (inactive) and the GI50 [6] was 36.1 µM (inactive). For the same molecule, the GI50 [7] was > 28.4 µM (inactive), the GI50 [8] was > 100 µM (inactive) and the GI50 [9] was > 100 µM (inactive). For the same molecule, the GI50 [10] was > 100 µM (inactive), the GI50 [11] was > 100 µM (inactive) and the GI50 [12] was > 100 µM (inactive). The GI50 [13] was greater than 100000 nM, the GI50 [14] was 13.6 µM (inactive) and the GI50 [15] was 36.1 µM (inactive). For the same molecule, the GI50 [16] was 11.6 µM (inactive), the GI50 [17] was > 100 µM (inactive) and the GI50 [18] was 32 µM (inactive). The GI50 [19] was > 100 µM (inactive), the GI50 [20] was > 73.1 µM (inactive) and the GI50 [21] was 74.1 µM (inactive). For the same molecule, the GI50 [22] was > 100 µM (inactive), the GI50 [23] was > 100 µM (inactive) and the GI50 [24] was > 100 µM (inactive). For the same molecule, the GI50 [25] was 19.8 µM (inactive), the GI50 [26] was > 100 µM (inactive) and the GI50 [27] was > 100 µM (inactive). For the same molecule, the GI50 [28] was 22.2 µM (inactive), the GI50 [29] was > 100 µM (inactive) and the GI50 [30] was > 100 µM (inactive). The GI50 [31] was 33 µM (inactive), the GI50 [32] was > 100 µM (inactive) and the GI50 [33] was 17.7 µM (inactive). The GI50 [34] was 21.9 µM (inactive), the GI50 [35] was 30.2 µM (inactive) and the GI50 [36] was > 90.8 µM (inactive). The GI50 [37] was > 100 µM (inactive), the GI50 [38] was 31.3 µM (inactive) and the GI50 [39] was 88.1 µM (inactive). For the same molecule, the GI50 [40] was > 20.1 µM (inactive), the GI50 [41] was 12.7 µM (inactive) and the GI50 [42] was > 100 µM (inactive). The GI50 [43] was 28.1 µM (inactive), the GI50 [44] was > 100 µM (inactive) and the GI50 [45] was > 100 µM (inactive). The GI50 [46] was > 100 µM (inactive), the GI50 [47] was 46.8 µM (inactive) and the GI50 [48] was > 100 µM (inactive). For the same molecule, the GI50 [49] was > 100 µM (inactive), the GI50 [50] was > 87.7 µM (inactive) and the GI50 [51] was 14.9 µM (inactive). For the same molecule, the GI50 [52] was > 28.3 µM (inactive), the GI50 [53] was > 100 µM (inactive) and the GI50 [54] was 8.18 µM (inactive). For the same molecule, the GI50 [55] was 97.5 µM (inactive), the GI50 [56] was 64 µM (inactive) and the GI50 [57] was > 100 µM (inactive). For the same molecule, the GI50 [58] was 29.6 µM (inactive) and the GI50 [59] was 20.8 µM (inactive).
